Values after ≈ are worked out from the molar mass of the structure shown. Like-named read-outs stand apart in the source and are kept apart here.
Legend:
[1] = biological target: T1, A. baumannii ATP synthase (Acinetobacter baumannii, UniProt A3M139); assay: AB ATP synthase inhibition: NADH-driven ATP synthesis in inverted inner membrane vesicles, luciferin/luciferase readout; type: biochemical; settings: for Hill coefficient (Hill slope): fit of ATP synthesis dose response curve
T1 construct: endogenous electron transport chains of inverted inner membrane vesicles were energized with NADH; endogenous in cells; host or cells: inverted inner membrane vesicles prepared from A. baumannii ATCC 17978 cells
T1 sequence (A3M139 whole entry): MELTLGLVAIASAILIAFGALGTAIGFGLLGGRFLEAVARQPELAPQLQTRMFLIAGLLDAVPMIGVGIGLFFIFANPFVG
Protocol: Once synthesized, the pyridine compounds were tested for their ability to inhibit ATP synthase activity using our previously reported luciferin/luciferase assay. Briefly, endogenous electron transport chains of inverted inner membrane vesicles were energized with NADH to generate a proton gradient and to drive ATP synthesis. ATP was measured via luminescence from the luciferase-catalyzed oxidation of D-luciferin. Luminescence activities across increasing inhibitor concentrations were corrected for gradient independent background sources of ATP by comparison with a control containing the protonophore CCCP (carbonyl cyanide 3-chlorophenylhydrazone). The data were then fit to a four-parameter logistic dose–response curve, from which IC50 values and Hill coefficients were determined using a nonlinear least-squares regression.
A. baumannii (ATCC 17978) cells were grown in LB medium at 37 °C with shaking at 150 rpm and harvested by centrifugation in the late exponential phase of growth. Cells were resuspended in TMG buffer (50 mM Tris-HCl, pH 7.5, 5 mM MgCl2, 10% v/v glycerol) with 1 mM phenylmethanesulfonyl fluoride, 1 mM dithiothreitol, and a small amount of DNase and lysed by two passes through an Avestin B15 homogenizer at 19,000 psi. Lysate was cleared by centrifugation at 9000g and inverted membrane vesicles were collected from the supernatant by centrifugation at 169,000g. To reduce background ATP synthesis activity in AB vesicles, it was important to wash the membranes by resuspending in TMG buffer and centrifuging again at 169,000g. Washed pellets were resuspended in TMG buffer, and aliquots were stored at −80 °C. Once thawed, aliquots were not refrozen. Protein concentration in membrane vesicles was determined using a modified Lowry assay.
In vitro ATP synthesis activity of inverted inner membrane vesicles was measured as previously described. A reaction solution was prepared containing 5 mM tricine-KOH, pH 8.0, 50 mM KCl, 2.5 mM MgCl2, 0.1 mM adenosine diphosphate, 3.75 mM potassium phosphate, and 2.5 mM NADH and distributed into a 96-well plate. NADH-driven ATP synthesis was initiated by addition of inverted vesicles to 50 μg/mL and allowed to proceed for 10 min. The reaction was stopped by transferring an aliquot into 1% trichloroacetic acid. The stopped reaction was diluted 100-fold with deionized water and a sample was transferred to luciferase solution containing 25 mM tricine-NaOH, pH 7.8, 5 mM MgSO4, 0.1 mM EDTA, 0.1 mM NaN3, 150 μg/mL luciferin, and 7.5 μg/mL luciferase. Luminescence was measured in an opaque white 96-well plate using a BioTek H1 multimode plate reader. Each replicate set included a positive control containing DMSO with no compound and a negative control containing carbonyl cyanide 3-chlorophenylhydrazone (CCCP). Luminescence values were corrected for background by subtracting the CCCP control and normalized to the luminescence of the DMSO control. Normalized activity was fit using a variable-slope dose response curve. Nonlinear regression, including prediction of 95% confidence bands, and pairwise comparisons of fits using the F-test method were completed using GraphPad Prism10. Relativeactivity=1/1+(c/IC50)^Hillslope […]
Figure S1. ATP synthesis inhibition by all pyridine compounds in order of WSA compound number. ATP synthesis activities in inverted inner membrane vesicles prepared from AB cells were measured in the presence of 0.0625-64 µg/mL, corrected for background ATP, and normalized to activity with DMSO alone (see methods). For each plot, dots are normalized activities at each concentration (n≥3) on a log 2 scale, solid lines are fitted dose response curves, and dashed lines show the 95% confidence range of the fit. IC50

HEK 293 cells = assay: XTT cell viability cytotoxicity assay; settings: n = 3, 24 h treatment
MDR AB BAA 1605 = assay: Broth microdilution antimicrobial susceptibility assay, MDR isolate; settings: Acinetobacter baumannii, BAA1605, read-out: MIC, MDR AB BAA 1605
AB ATCC 17978 = assay: Broth microdilution antimicrobial susceptibility assay, susceptible isolate; settings: Acinetobacter baumannii, ATCC17978, read-out: MIC, AB ATCC 17978
[2] = inverted inner membrane vesicles, 0.0625-64 µg/mL, n≥3, Table S1, read-out: AB ATP Synthase Inhibition IC50 (converted)
[3] = Figure 2, read-out: IC50, AB ATP synthase inhibition (converted)

Row | Compound | Hill coefficient (Hill slope) [1] | IC50 [1, 2] [nM] | MIC, HEK 293 (cytotoxicity) (HEK 293 cells) [µg/mL] | MIC (MDR AB BAA 1605) [µg/mL] | MIC (AB ATCC 17978) [µg/mL] | IC50 [1, 3] [nM] | Hill coefficient (Hill slope) ([1]; listed as WSA305)
1 | Fc1ccc(-c2cnc(SCc3ccccc3)c(CNCCC3CCN(C4CCCC4)CC3)c2)c(F)c1 [WSA 292] | -1.1 | 997 | 4 (≈ 7.67 µM) | 32 (≈ 61.3 µM) | 16 (≈ 30.7 µM) | – | –
2 | c1ccc(CSc2ncc(-c3ccccc3)cc2CNCc2ccc(CN3CCCC3)cc2)cc1 [WSA 294] | -0.7 | – | 8 (≈ 16.7 µM) | 32 (≈ 66.7 µM) | 32 (≈ 66.7 µM) | 1230 | –
3 | CNC(C)C1CCC(N)C(OC2C(N)CC(N)C(OC3OCC(C)(O)C(NC)C3O)C2O)O1 (centres unmarked) [Gentamicin, reference compound] | – | – | – | > 16 | 8 (≈ 16.8 µM) | – | –
4 | CN1CCN(CCNCc2cc(-c3ccccc3)cnc2SCc2ccccc2)CC1 [WSA 277] | -0.7 | 2170 | 16 (≈ 37 µM) | 128 (≈ 296 µM) | 32 (≈ 74 µM) | – | –
5 | CCN1CCC(CCNCc2cccnc2SCc2ccccc2)CC1 [WSA 264] | -0.8 | 83900 | – | > 128 | > 128 | – | –
6 | COc1ccc(-c2cnc(SCc3ccccc3)c(CNCc3ccc(CN4CCCC4)cc3)c2)cc1 [WSA 296] | -0.6 | – | 16 (≈ 31.4 µM) | 128 (≈ 251 µM) | 32 (≈ 62.8 µM) | 863 | –
7 | Cc1ccc(-c2cnc(SCc3ccccc3)c(CNCc3ccc(CN4CCCC4)cc3)c2)cc1 [WSA 295] | -0.7 | 1090 | 16 (≈ 32.4 µM) | 128 (≈ 259 µM) | 32 (≈ 64.8 µM) | – | –
8 | COc1ccc(-c2cnc(SCc3ccccc3)c(CNCCN3CCN(C)CC3)c2)cc1 [WSA 278] | -0.8 | – | 16 (≈ 34.6 µM) | 128 (≈ 277 µM) | 64 (≈ 138 µM) | 2070 | –
9 | CN1CCN(CCNCc2cc(Br)cnc2SCc2ccccc2)CC1 [WSA 271] | -0.7 | 2300 | 64 (≈ 147 µM) | > 128 | > 128 | – | –
10 | COc1ccc(-c2cnc(SCc3ccccc3)c(CNCCC3CCN(C4CCCC4)CC3)c2)cc1F [WSA 290] | -0.7 | 356 | 4 (≈ 7.49 µM) | 32 (≈ 60 µM) | 32 (≈ 60 µM) | – | –
11 | c1ccc(CSc2ncccc2CNCCC2CCN(C3CCCC3)CC2)cc1 [WSA 265] | -0.7 | 132000 | – | > 128 | > 128 | – | –
12 | Fc1ccc(-c2cnc(SCc3ccccc3)c(CNCc3ccc(CN4CCCC4)cc3)c2)c(F)c1 [WSA 299] | -1.1 | 2130 | 16 (≈ 31 µM) | 128 (≈ 248 µM) | 32 (≈ 62.1 µM) | – | –
13 | CCN1CCC(CCNCc2cc(Br)cnc2SCc2ccccc2)CC1 [WSA 272] | -0.6 | 4460 | 32 (≈ 71.4 µM) | 128 (≈ 285 µM) | 128 (≈ 285 µM) | – | –
14 | Brc1cnc(SCc2ccccc2)c(CNCc2ccc(CN3CCCC3)cc2)c1 [WSA 293] | -1.2 | 3730 | 64 (≈ 133 µM) | 64 (≈ 133 µM) | 32 (≈ 66.3 µM) | – | –
15 | COc1nc2ccc(Br)cc2cc1[C@@H](c1ccccc1)[C@@](O)(CCN(C)C)c1cccc2ccccc12 [Bedaquiline, bedaquiline, reference compound] | – | – | > 32 | – | – | – | –
16 | CCN1CCC(CCNCc2cc(-c3ccccc3)cnc2SCc2ccccc2)CC1 [WSA 304] | -0.7 | 1370 | 8 (≈ 18 µM) | 64 (≈ 144 µM) | 32 (≈ 71.8 µM) | – | –
17 | CCN1CCC(CCNCc2cc(-c3ccc(OC)cc3)cnc2SCc2ccccc2)CC1 [WSA 305] | -0.6 | 568 | 4 (≈ 8.41 µM) | 32 (≈ 67.3 µM) | 32 (≈ 67.3 µM) | – | -0.7
18 | CCN1CCC(CCNCc2cc(-c3ccc(F)cc3)cnc2SCc2ccccc2)CC1 [WSA 307] | -0.8 | 1160 | 8 (≈ 17.3 µM) | 32 (≈ 69 µM) | 32 (≈ 69 µM) | – | –
19 | CCN1CCC(CCNCc2cc(-c3ccc(OC)c(F)c3)cnc2SCc2ccccc2)CC1 [WSA 306] | -0.9 | 1070 | 16 (≈ 32.4 µM) | 32 (≈ 64.8 µM) | 32 (≈ 64.8 µM) | – | –
20 | CN1CCN(CCNCc2cccnc2SCc2ccccc2)CC1 [WSA 268] | -0.5 | > 180000 | – | > 128 | > 128 | – | –
21 | CCN1CCC(CCNCc2cc(-c3ccc(C)cc3)cnc2SCc2ccccc2)CC1 [WSA 300] | -0.7 | 674 | 4 (≈ 8.7 µM) | 32 (≈ 69.6 µM) | 16 (≈ 34.8 µM) | – | –
22 | Brc1cnc(SCc2ccccc2)c(CNCCC2CCN(C3CCCC3)CC2)c1 [WSA 301] | -0.5 | 2660 | 16 (≈ 32.8 µM) | > 128 | 128 (≈ 262 µM) | – | –
23 | CN(C)c1ccc(-c2cnc(SCc3ccccc3)c(CNCCC3CCN(C4CCCC4)CC3)c2)cc1 [WSA 303] | -1.2 | 1190 | 4 (≈ 7.56 µM) | 128 (≈ 242 µM) | 64 (≈ 121 µM) | – | –
24 | c1ccc(CSc2ncccc2CNCc2ccc(CN3CCCC3)cc2)cc1 [WSA 267] | -0.7 | 91700 | – | 128 (≈ 317 µM) | 128 (≈ 317 µM) | – | –

Source: publication PMC12509006, “Synthesis and Evaluation of Pyridine-Based Antibacterial Agents that Inhibit ATP Synthase in Acinetobacter baumannii” (ACS Omega, 2025)
